# Experiments:
# Mus musculus [1] = test: Compound was evaluated for number of survivors in L1210 leukemia implanted BDF1 mice on day 0 after ip administration of 25 mg/kg/day on day 60 out of 6 mice; format: functional; conditions: route intraperitoneal
# Mus musculus [2] = test: Compound was evaluated for number of survivors in P388 leukemia implanted BDF1 mice on day 0 after ip administration of 20 mg/kg/day on day 60 out of 5 mice; format: functional; conditions: route intraperitoneal
# Mus musculus [3] = test: Compound was evaluated for %T/C in P388 leukemia implanted BDF1 mice on day 0 after ip administration of 10 mg/kg/day on day 1-5; format: functional; conditions: route intraperitoneal
# Mus musculus [4] = test: Compound was evaluated for %T/C in L1210 leukemia implanted BDF1 mice on day 0 after ip administration of 40 mg/kg/day on day 1; format: functional; conditions: route intraperitoneal
# Mus musculus [5] = test: Compound was tested for mortality in P388 leukemia implanted BDF1 mice on day 0 after ip administration of 50 mg/kg/day on day 1-5 out of 6 mice; format: functional; conditions: route intraperitoneal
# Mus musculus [6] = test: Compound was tested for mortality in L1210 leukemia implanted BDF1 mice on day 0 after ip administration of 10 mg/kg/day on days 1-5 out of 5 mice; format: functional; conditions: route intraperitoneal
# Mus musculus [7] = test: Compound was evaluated for number of survivors in P388 leukemia implanted BDF1 mice on day 0 after ip administration of 50 mg/kg/day on day 60 out of 5 mice; format: functional; conditions: route intraperitoneal
# Mus musculus [8] = test: Compound was evaluated for %T/C in P388 leukemia implanted BDF1 mice on day 0 after ip administration of 20 mg/kg/day on day 1; format: functional; conditions: route intraperitoneal
# Mus musculus [9] = test: Compound was evaluated for number of survivors in L1210 leukemia implanted BDF1 mice on day 0 after ip administration of 5 mg/kg/day on day 60 out of 5 mice; format: functional; conditions: route intraperitoneal
# Mus musculus [10] = test: Compound was evaluated for %T/C in L1210 leukemia implanted BDF1 mice on day 0 after ip administration of 3.12 mg/kg/day on day 1-9; format: functional; conditions: route intraperitoneal
# Mus musculus [11] = test: (§1) Compound was evaluated for number of survivors in L1210 leukemia implanted BDF1 mice on day 0 after ip administration of 20 mg/kg/day on day 60 out of 5 mice; format: functional; conditions: route intraperitoneal
# Mus musculus [12] = test: Compound was tested for mortality in L1210 leukemia implanted BDF1 mice on day 0 after ip administration of 2.5 mg/kg/day on day 1-5 out of 5 mice; format: functional; conditions: route intraperitoneal
# [13] = Half-life period in 95% ethanol in diffuse laboratory light at 28 degrees celsius.; format: ADME
# Mus musculus [14] = test: Compound was tested for mortality in P388 leukemia implanted BDF1 mice on day 0 after ip administration of 80 mg/kg/day on day 1 out of 5 mice; format: functional; conditions: route intraperitoneal
# Mus musculus [15] = test: as §1; format: functional; conditions: route intraperitoneal; remark: listed apart in the source
# Mus musculus [16] = test: Compound was tested for mortality in L1210 leukemia implanted BDF1 mice on day 0 after ip administration of 25 mg/kg/day on day 1-9 out of 6 mice; format: functional; conditions: route intraperitoneal
# Mus musculus [17] = test: Compound was evaluated for %T/C in P388 leukemia implanted BDF1 mice on day 0 after ip administration of 80 mg/kg/day on day 1; format: functional; conditions: route intraperitoneal
# Mus musculus [18] = test: Compound was evaluated for number of survivors in L1210 leukemia implanted BDF1 mice on day 0 after ip administration of 80 mg/kg/day on day 60 out of 5 mice; format: functional; conditions: route intraperitoneal
# Mus musculus [19] = test: Compound was evaluated for %T/C in P388 leukemia implanted BDF1 mice on day 0 after ip administration of 20 mg/kg/day on day 1-5; format: functional; conditions: route intraperitoneal
# Mus musculus [20] = test: Compound was evaluated for number of survivors in P388 leukemia implanted BDF1 mice on day 0 after ip administration of 40 mg/kg/day on day 60 out of 5 mice; format: functional; conditions: route intraperitoneal
# Mus musculus [21] = test: Compound was evaluated for %T/C in P388 leukemia implanted BDF1 mice on day 0 after ip administration of 25 mg/kg/day on day 1-5; format: functional; conditions: route intraperitoneal
# Mus musculus [22] = test: Compound was evaluated for number of survivors in L1210 leukemia implanted BDF1 mice on day 0 after ip administration of 7.5 mg/kg/day on day 60 out of 5 mice; format: functional; conditions: route intraperitoneal
# Mus musculus [23] = test: Compound was tested for mortality in P388 leukemia implanted BDF1 mice on day 0 after ip administration of 12.5 mg/kg/day on day 1-5 out of 6 mice; format: functional; conditions: route intraperitoneal
# Mus musculus [24] = test: Compound was evaluated for number of survivors in L1210 leukemia implanted BDF1 mice on day 0 after ip administration of 6.25 mg/kg/day on day 60 out of 6 mice; format: functional; conditions: route intraperitoneal
# Mus musculus [25] = test: Compound was tested for mortality in L1210 leukemia implanted BDF1 mice on day 0 after ip administration of 20 mg/kg/day on day 1 out of 5 mice; format: functional; conditions: route intraperitoneal
# Mus musculus [26] = test: Compound was tested for mortality in P388 leukemia implanted BDF1 mice on day 0 after ip administration of 10 mg/kg/day on day 1 out of 5 mice; format: functional; conditions: route intraperitoneal
# Mus musculus [27] = test: Compound was evaluated for %T/C in P388 leukemia implanted BDF1 mice on day 0 after ip administration of 5 mg/kg/day on day 1-5; format: functional; conditions: route intraperitoneal
# Mus musculus [28] = test: Compound was evaluated for number of survivors in L1210 leukemia implanted BDF1 mice on day 0 after ip administration of 40 mg/kg/day on day 60 out of 5 mice; format: functional; conditions: route intraperitoneal
# Mus musculus [29] = test: Compound was evaluated for number of survivors in P388 leukemia implanted BDF1 mice on day 0 after ip administration of 6.25 mg/kg/day on day 60 out of 6 mice; format: functional; conditions: route intraperitoneal
# Mus musculus [30] = test: Compound was evaluated for %T/C in L1210 leukemia implanted BDF1 mice on day 0 after ip administration of 5 mg/kg/day on day 1; format: functional; conditions: route intraperitoneal
# Mus musculus [31] = test: Compound was tested for mortality in P388 leukemia implanted BDF1 mice on day 0 after ip administration of 10 mg/kg/day on day 1-5 out of 5 mice; format: functional; conditions: route intraperitoneal
# Mus musculus [32] = test: Compound was evaluated for number of survivors in P388 leukemia implanted BDF1 mice on day 0 after ip administration of 12.5 mg/kg/day on day 60 out of 6 mice; format: functional; conditions: route intraperitoneal
# Mus musculus [33] = test: Compound was evaluated for %T/C in L1210 leukemia implanted BDF1 mice on day 0 after ip administration of 5 mg/kg/day on day 1-5; format: functional; conditions: route intraperitoneal
# Mus musculus [34] = test: Compound was tested for mortality in L1210 leukemia implanted BDF1 mice on day 0 after ip administration of 10 mg/kg/day on day 1 out of 5 mice; format: functional; conditions: route intraperitoneal
# Mus musculus [35] = test: Compound was evaluated for %T/C in P388 leukemia implanted BDF1 mice on day 0 after ip administration of 2.5 mg/kg/day on day 1-5; format: functional; conditions: route intraperitoneal
# Mus musculus [36] = test: Compound was evaluated for %T/C in P388 leukemia implanted BDF1 mice on day 0 after ip administration of 50 mg/kg/day on day 1-5; format: functional; conditions: route intraperitoneal
# Mus musculus [37] = test: Compound was evaluated for number of survivors in P388 leukemia implanted BDF1 mice on day 0 after ip administration of 80 mg/kg/day on day 60 out of 5 mice; format: functional; conditions: route intraperitoneal
# Mus musculus [38] = test: Compound was evaluated for %T/C in L1210 leukemia implanted BDF1 mice on day 0 after ip administration of 20 mg/kg/day on day 1; format: functional; conditions: route intraperitoneal
# Mus musculus [39] = test: Compound was tested for mortality in P388 leukemia implanted BDF1 mice on day 0 after ip administration of 5 mg/kg/day on day 1 out of 5 mice; format: functional; conditions: route intraperitoneal
compound,measurement,setting,value
NC(=O)c1ncn2c(=O)n(CCCl)nnc12 [MITOZOLOMIDE],Survivors,Mus musculus [1],6
same,Survivors,Mus musculus [2],5
same,T/C,Mus musculus [3],>555%
same,T/C,Mus musculus [4],>740%
same,Mortality,Mus musculus [5],0
same,Mortality,Mus musculus [6],0
same,Survivors,Mus musculus [7],0
same,T/C,Mus musculus [8],>600%
same,Survivors,Mus musculus [9],0
same,T/C,Mus musculus [10],147%
same,Survivors,Mus musculus [11],1
same,Mortality,Mus musculus [12],0
same,half-life,[13],1.17 h
same,Mortality,Mus musculus [14],0
same,Survivors,Mus musculus [15],5
same,Mortality,Mus musculus [16],0
same,T/C,Mus musculus [17],74%
same,Survivors,Mus musculus [18],0
same,T/C,Mus musculus [19],>555%
same,Survivors,Mus musculus [20],5
same,T/C,Mus musculus [21],387%
same,Survivors,Mus musculus [22],0
same,Mortality,Mus musculus [23],0
same,Survivors,Mus musculus [24],0
same,Mortality,Mus musculus [25],0
same,Mortality,Mus musculus [26],0
same,T/C,Mus musculus [27],277%
same,Survivors,Mus musculus [28],5
same,Survivors,Mus musculus [29],0
same,T/C,Mus musculus [30],111%
same,Mortality,Mus musculus [31],0
same,Survivors,Mus musculus [32],1
same,T/C,Mus musculus [33],139%
same,Mortality,Mus musculus [34],0
same,T/C,Mus musculus [35],148%
same,T/C,Mus musculus [36],153%
same,Survivors,Mus musculus [37],0
same,T/C,Mus musculus [38],198%
same,Mortality,Mus musculus [39],0

# — ChEMBL document CHEMBL1122784, “Antitumor imidazotetrazines. 1. Synthesis and chemistry of 8-carbamoyl-3-(2-chloroethyl)imidazo[5,1-d]-1,2,3,5-tetrazin-4(3 H)-one , a novel broad-spectrum antitumor agent” (J Med Chem, 1984)
